This is an account of results in patent US12691083B2, “Pharmaceutical composition for preventing or treating attention deficit/hyperactivity disorder, containing KDS2010 as active ingredient” (DANKOOK UNIVERSITY CHEONAN CAMPUS INDUSTRY ACADEMIC …, priority 2021, dated 2026).

What all share (type): in vivo
The test system of experiment [1] is Git1 hetero type (+/−) mice. The experiment can be described thus: Self-grooming test. The conditions noted are these: Git1 hetero type (+/−) mice administered KDS2010; recorded for 10 minutes; compared with wild type (+/+); FIG. 5. The protocol: (§1) The KDS2010 was orally administered at a concentration of 10 mg/kg per day. The amount (mg) of each drug was calculated according to the weight (kg) of each mouse, followed by dissolution in 100 μL of drinking water. Oral administration was performed once a day. The daily amount of water consumed by adult mice older than 7 weeks was administered at a calculated dose of […]. The drug was administered 3 days prior to passive avoidance, and the drug administration was continued during the passive avoidance test. KDS2010 is an inhibitor against monoamine oxidase B (MAOB) and may reduce GABA levels that are increased in astrocytes of the hippocampus.
For a self-grooming test, mice were placed in a plastic cylinder with a diameter of 15 cm and a height of 35 cm. In the plastic cylinder, mice were habituated for about 20 minutes, and then self-grooming behavior was recorded for 10 minutes. The duration of the self-grooming behavior was checked through the recorded video, and if there was an interval of 5 seconds, it was measured as different self-grooming. The number of each different self-grooming behavior was expressed as each different self-grooming bout.

In experiment [2] the test system is Git1 gene-deficient hetero (+/−) mice. The experiment can be described thus: Passive avoidance test (fear memory learning ability). The conditions noted are these: Git1 hetero type (+/−) mice, KDS2010 orally 10 mg/kg per day. On the procedure: The hippocampus, one of the regions that affects ADHD, is responsible for functions related to learning and memory. In order to evaluate the effect of ameliorating ADHD upon administration of KDS2010, KDS2010 was administered to Git1 gene-deficient hetero (+/−) mice, an animal model with ADHD, and a passive avoidance test that enables evaluation on a fear memory learning ability in relation to the function of the dentate gyrus in the hippocampus was conducted. The passive avoidance test was performed using a common passive avoidance test device which was a shuttle box divided into two rooms, one of which was equipped with a bright light bulb to create a bright environment that the laboratory animals dislike, while the other room was designed not to allow light to enter such that the laboratory animals may feel comfortable. […] Immediately thereafter, after 24 hours and after 48 hours, the latency time of entering a dark room without an electric shock is measured up to 90 seconds (retention tests 1, 2, and 3).
The KDS2010 was orally administered at a concentration of 10 mg/kg per day. The amount (mg) of each drug was calculated according to the weight (kg) of each mouse, followed by dissolution in 100 μL of drinking water. […] The daily amount of water consumed by adult mice older than 7 weeks was administered at a calculated dose of 10 ml/day. […]

In experiment [3] the test system is Git1 hetero type (+/−) mice. The experiment can be described thus: Open field test (hyperactivity, locomotor activity). The conditions noted are these: Git1 hetero type (+/−) mice administered KDS2010; movement measured for 10 minutes; FIG. 4. The protocol: as §1
ADHD is diagnosed based on two main tendencies including a hyperactive type and an inattention type, but the two symptoms don't necessarily occur together. From this point of view, hyperactivity-related abilities should not be impaired in the course of treatment for inattention, which has been determined through an open field test that enables measurement of hyperactivity.
An open field test was performed to assess whether there is a behavioral improvement. […] The mice were placed in the center of an open field test cage (30×30×30 cm), and its movement was measured for 10 minutes. The measured videos were analyzed for locomotor activity through ANYmaze.

Turning to `C[C@H](NCc1ccc(-c2ccc(C(F)(F)F)cc2)cc1)C(N)=O` [KDS2010, (S)-2-(((4′-(trifluoromethyl)-[1,1′-biphenyl]-4-yl)methyl)amino)propenamide], the self-grooming duration entry in experiment [1] is on record as “decrease to a value similar to the wild type (+/+) mice”. For the same molecule, the “fear memory learning ability” value in experiment [2] (from 3 days prior to and during test, compared with wild type (+/+), FIG. 2) is given as “recovery in the fear memory learning ability, similar to the wild type (+/+) mice”. Moreover, in experiment [2] (retention trial, compared with wild type), the “entry time (time to enter the dark room), retention” value is reported as “entry time recovered closer to the wild type”. In addition, the effect on hyperactivity entry in experiment [3] is “no effect was derived on hyperactivity”.
